In patent US7915050B2, “Regulatory genes for plant differentiation and growth, and use of the same” (National University Corporation Nagoya University, priority 2005, dated 2011):
Like-named read-outs stand apart in the source and are kept apart here.

Legend:
[1] = molecular target: T1, AtGID1a (Arabidopsis thaliana, UniProt Q9MAA7); experiment: Competitive ability of GA in AtGID1-GA binding (AtGID1a); settings: for IC50: tracer 15 nM, mean of at least two measurements
T1 construct: made in house; host or cells: E. coli
T1 sequence (Q9MAA7 1-345): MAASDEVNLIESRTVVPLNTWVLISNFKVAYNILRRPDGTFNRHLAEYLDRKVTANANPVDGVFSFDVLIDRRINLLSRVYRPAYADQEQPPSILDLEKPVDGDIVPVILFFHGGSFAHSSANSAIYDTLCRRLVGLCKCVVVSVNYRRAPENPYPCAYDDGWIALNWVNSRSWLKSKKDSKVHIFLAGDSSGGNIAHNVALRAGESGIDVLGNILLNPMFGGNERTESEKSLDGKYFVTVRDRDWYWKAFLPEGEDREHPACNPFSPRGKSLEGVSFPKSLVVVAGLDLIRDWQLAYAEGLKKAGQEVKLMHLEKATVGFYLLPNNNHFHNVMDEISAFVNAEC
Description: (§1) In the gibberellin-binding assay, [1,2,16,17-^3H4]16,17-dihydro-GA4 was used as a labeled GA4. In vitro GA-binding assays were carried out using previous methods with some modifications (Nakajima, M. et al., Biochem. Biophys. Res. Comm. 241, 782-786 (1997)). The purified recombinant GID1 protein (400 pmol) was dissolved in 300 μl of binding buffer [20 mM Tris-HCl (pH 7.6), 5 mM 2-mercaptoethanol, and 0.1 M NaCl], and incubated with 100 μl of ^3H4-16,17-dihydroGA4 (6 pmol) for two hours at 25° C., either in the absence of non-labeled GA4 (total binding) or in the presence of 833-fold excess non-labeled GA4 (total non-specific binding). Then, 0.1 ml of the reaction mixture was loaded onto a NAP-5 column (Amersham Biosciences, Piscataway, N.J.). The eluate of the binding buffer (0.6 ml) was discarded, the subsequent eluate (0.2 ml) was collected, and the radioactivity was measured. The specific binding activity, reflecting the number of displaceable GA binding sites, was calculated by subtracting the amount of nonspecific binding from the amount of total binding. The same as above can also be carried out for other GAs.
(§2) Specifically, the coding region of the AtGID1 gene was amplified by PCR using specific primers designed based on the full-length cDNA sequence of the AtGID1 gene and having appropriate restriction sites at each end. After confirmation by sequence analysis, each cDNA fragment was ligated into pET32a vector (Novagen/Merck Biosciences, Madison, Wis., USA) or pGEX-4T-2 vector (Amersham Biosciences, Piscataway, N.J., USA; currently, a part of GE Healthcare). The production of recombinant proteins was confirmed by SDS-PAGE; vector cassettes were used as negative controls. GA binding assays were carried out similarly as described above using [1,2,16,17-^3H4]-16,17-dihydro-GA4 (4.55 TBq/mmol), which was custom-made by DuPont/NEN (Boston, Mass., USA). Non-labeled GA4 (1.25 mM) was used to measure non-specific binding. Saturation experiments for the kinetic analysis were carried out using ten concentrations of 16,17-dihydro-GA4 within the range of 25 to 1,500 nM. Competition assays were performed using [1,2,16,17-^3H4]-16,17-dihydro-GA4 at 15 nM and five concentrations of the non-labeled competitor. Recombinant RGA and GAI proteins were prepared using pET32a by a previously described method.
(§3) The ligand selectivity of each AtGID1 was examined by observing the competitive inhibition, by the addition of GA to the assay mixtures, of the binding between the recombinant proteins and tritiated 16,17-dihydro-GA4 (Table 2). The ligand selectivity was evaluated using the concentration of GA that inhibits 50% of the tracer (15 nM) binding (IC50 value).

[2] = molecular target: T2, AtGID1b (Arabidopsis thaliana, UniProt Q9LYC1); experiment: Competitive ability of GA in AtGID1-GA binding (AtGID1b); settings: for IC50: tracer 15 nM, mean of at least two measurements
T2 construct: made in house; host or cells: E. coli
T2 sequence (Q9LYC1 1-358): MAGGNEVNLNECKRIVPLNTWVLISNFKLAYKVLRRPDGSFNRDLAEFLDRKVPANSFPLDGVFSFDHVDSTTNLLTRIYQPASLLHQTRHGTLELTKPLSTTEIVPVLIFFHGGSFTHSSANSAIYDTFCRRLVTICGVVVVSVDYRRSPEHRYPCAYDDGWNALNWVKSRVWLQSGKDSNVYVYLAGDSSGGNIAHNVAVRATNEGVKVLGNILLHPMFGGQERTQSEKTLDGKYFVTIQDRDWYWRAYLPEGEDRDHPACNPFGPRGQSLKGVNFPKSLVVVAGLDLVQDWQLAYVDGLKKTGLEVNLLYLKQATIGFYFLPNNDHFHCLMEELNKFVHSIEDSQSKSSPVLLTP
Description: as §1, §2, §3

[3] = molecular target: T3, AtGID1c (Arabidopsis thaliana, UniProt Q940G6); experiment: Competitive ability of GA in AtGID1-GA binding (AtGID1c); settings: for IC50: tracer 15 nM, mean of at least two measurements
T3 construct: made in house; host or cells: E. coli
T3 sequence (Q940G6 1-344): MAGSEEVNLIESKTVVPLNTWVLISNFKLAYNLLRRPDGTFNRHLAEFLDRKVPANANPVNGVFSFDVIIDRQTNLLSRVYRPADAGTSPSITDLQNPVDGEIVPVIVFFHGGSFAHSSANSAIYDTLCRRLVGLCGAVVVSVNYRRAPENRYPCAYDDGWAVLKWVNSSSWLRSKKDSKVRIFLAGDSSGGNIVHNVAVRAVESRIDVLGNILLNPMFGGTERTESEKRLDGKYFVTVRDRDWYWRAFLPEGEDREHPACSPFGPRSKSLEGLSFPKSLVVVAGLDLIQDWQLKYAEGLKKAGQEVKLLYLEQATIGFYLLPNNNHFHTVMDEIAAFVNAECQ
Description: as §1, §2, §3

[4] = molecular target: T4, GID1 (Oryza sativa subsp. japonica, UniProt Q6L545); experiment: Competition of various GAs in the binding of the 3H-GA4 derivative to GID1 protein; set-up: species or system rice; settings: for IC50: competition with tritiated GA4 derivative for binding to recombinant GID1, read-out: IC50 (concentration required for 50% inhibition); for Rel % (relative value): relative competition, GA4 given as 100
T4 construct: GST (tag of vector pGEX-4T) (N); made in house
T4 sequence (Q6L545 whole entry): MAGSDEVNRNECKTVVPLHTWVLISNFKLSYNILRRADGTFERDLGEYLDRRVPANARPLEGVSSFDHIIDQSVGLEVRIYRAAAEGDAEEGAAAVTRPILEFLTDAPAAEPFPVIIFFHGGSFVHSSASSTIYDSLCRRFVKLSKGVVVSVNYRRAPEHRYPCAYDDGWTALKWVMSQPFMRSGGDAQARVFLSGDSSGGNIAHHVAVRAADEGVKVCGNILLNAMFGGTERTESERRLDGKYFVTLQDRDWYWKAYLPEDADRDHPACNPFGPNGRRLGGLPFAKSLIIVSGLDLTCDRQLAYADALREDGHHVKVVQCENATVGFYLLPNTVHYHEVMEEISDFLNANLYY
Description: as §1
Thus, it was postulated that, like GID2, GID1 is involved in the degradation of SLR1, or that GID1 functions upstream of SLR1 in GA signaling. […] Based on this phenotypic characteristic of gid1, it was predicted that GID1 was involved in GA perception. To verify this possibility, the interactions between GID1 and radioisotope-labeled GA was directly examined using non-equilibrium gel filtration (Nakajima, M. et al., Biochem. Biophys. Res. Comm. 241, 782-786 (1997)). […] Next, ligand specificity of GID1 was tested by using competition between the tritiated GA4 derivative and various GAs. The concentration of each GA that is required for a 50% inhibition (IC50) of the binding of the tritiated GA4 derivative to GID1 is shown in Table 1. […] The IC50 value for each of these GAs was well consistent with their physiological activity.

[5] = molecular target: T4, GID1; experiment: Saturation/Scatchard and association/dissociation analysis of GA binding to recombinant GID1; set-up: species or system rice
Description: Panel a) depicts the saturability for the GA binding of GID1. […] Bar represents the standard deviation (n=3). Panel b) depicts the results of a Scatchard plot for the data of binding shown in a. The Kd value was calculated (correlation coefficient R^2=0.96) from t three independent experimental results. Panel c) depicts the ^3H-GA association/dissociation rate to GID1. […] Bar represents the standard deviation (n=3). […] Upper panel, none of three recombinant proteins of mutant GID1s (GID1-1, 1-2, and 1-3) corresponding to the three gid1 alleles interacted with GA4. […] Bar represents the standard deviation (n=3). Bottom panel, Coomassie brilliant blue stain of the recombinant proteins used in this experiment. Dot represents GID or tag proteins in the SDS-PAGE profile. In this experiment, almost equal amounts of proteins were used for each (80 pmol). Panel e) depicts the gross morphologies of a GID1-overexpressing plant (Actin1 promoter-GID1, right) and wild type plant (control, left) three months after seeding. Bar=50 cm. f) dose-dependent GA response in the elongation of the second leaf sheath of GID1overexpressing plant (closed triangle) and wild type (closed circle). Bar represents the standard deviation (n=5).
In the gibberellin-binding assay, [1,2,16,17-^3H4]16,17-dihydro-GA4 was used as a labeled GA4. In vitro GA-binding assays were carried out using previous methods with some modifications (Nakajima, M. et al., Biochem. Biophys. Res. Comm. 241, 782-786 (1997)). […] The eluate of the binding buffer (0.6 ml) was discarded, the subsequent eluate (0.2 ml) was collected, and the radioactivity was measured. The specific binding activity, reflecting the number of displaceable GA binding sites, was calculated by subtracting the amount of nonspecific binding from the amount of total binding. […]
Next, the kinetics of the binding of GID1 to GA was analyzed. To calculate the Kd value of GID1 to GA, the saturability of GA binding was measured using various concentrations of GA4 derivative (FIG. 4a). […]

Substance | relative value, taking the value for GA4 as 100 [1] | IC50 [1] [µM] | relative value, taking the value for GA4 as 100 [2] | IC50 [2] [µM] | relative value, taking the value for GA4 as 100 [3] | IC50 [3] [µM] | IC50 [4] [µM] | Rel % (relative value) [4] | half-time required for association/dissociation [5] | half-time required for association/dissociation ([5]; listed as GA4 derivative)
3-epi-GA4 | (<0.1) % | > 300 | (<0.1) % | 100 | (<0.1) % | > 300 | > 200 | (<0.1) % | – | –
[1,2,16,17-^3H4]16,17-dihydro-GA4 [^3H4-16,17-dihydroGA4] | – | – | – | – | – | – | – | – | within several minutes | several minutes or less
methyl ester of GA4 [GA4-Me] | (0.1) % | 300 | (0.3) % | 9 | (0.3) % | 90 | 30 | (0.6) % | – | –
